Data reported in patent publication EP1181935A2, “Agent for treating mental disorders associated with cerebrovascular disorders” (SUMITOMO PHARMACEUTICALS COMPANY, LIMITED, priority 1995, dated 1996).
Where a name gives a salt, the structure may show the parent alone.

System: patients with cerebral infarction or hemorrhage accompanied by various mental disorders
Assay: Clinical trial of SM-9018 for mental disorders associated with cerebrovascular disorders
Format: in vivo
Conditions: 8 weeks
Protocol: Examination 1 Clinical trial of SM-9018 for mental disorders associated with cerebrovascular disorders.
SM-9018 was administered to patients with cerebral infarction or hemorrhage accompanied by various mental disorders described above to examine whether the mental disorders will be improved or not.
One mg/dosage of SM-9018 was orally administered once (Step I), twice (Step II) or 3 times a day (Step III) for up to 2 weeks after the administration was started and, when the treatment was effective, administration thereof was continued.
[2] Administration periods: 8 weeks
Improvement of the mental disorders was evaluated by categorizing into 4 grades: i.e. 1) "excellent", 2) "moderate", 3) "slight", or 4) "unchanged" or other. Among the results obtained, "the number of patients categorized to 1) + 2) divided by the number of patients tested" for each symptom is summarized in the following Tables 1 to 3.

[1] = Step I: 1 mg orally once a day (increased to 1 mg x 2 times/day if no effect)
[2] = Step I: 1 mg orally once a day (increased to 1 mg x 2 times/day if no effect), 35 patients examined
[3] = Step II: 1 mg orally twice a day (increased to 2 mg x 2 times/day if no effect)
[4] = Step II: 1 mg orally twice a day (increased to 2 mg x 2 times/day if no effect), 28 patients examined
[5] = Step III: 1 mg orally 3 times a day (increased to 2 mg x 3 times/day if no effect)
[6] = Step III: 1 mg orally 3 times a day (increased to 2 mg x 3 times/day if no effect), 20 patients examined

`O=C1[C@H]2CCCC[C@H]2C(=O)N1CCCCN1CCN(c2nsc3ccccc23)CC1` [SM-9018, N-[4-[4-(1,2-benzisothiazol-3-yl)-1-piperazinyl]butyl]-1,2-cis-cyclohexandicarboxyimide hydrochloride] was tested, and the “Aggressive behavior: number of patients categorized to 1) + 2) divided by the number of patients tested” value [1] was 2/7, the “Anxiety: number of patients categorized to 1) + 2) divided by the number of patients tested” value [1] was 3/22 and the “Bad humor: number of patients categorized to 1) + 2) divided by the number of patients tested” value [1] was 4/18. For the same compound, the “Delirium: number of patients categorized to 1) + 2) divided by the number of patients tested” value [1] was 1/4, the “Depressive mood: number of patients categorized to 1) + 2) divided by the number of patients tested” value [1] was 4/25 and the “Emotional incontinence: number of patients categorized to 1) + 2) divided by the number of patients tested” value [1] was 2/13. The “Emotional tension: number of patients categorized to 1) + 2) divided by the number of patients tested” value [1] was 2/18, the “Fugue: number of patients categorized to 1) + 2) divided by the number of patients tested” value [1] was 1/6 and the “Irritability: number of patients categorized to 1) + 2) divided by the number of patients tested” value [1] was 4/25. For the same compound, the “Mental excitement: number of patients categorized to 1) + 2) divided by the number of patients tested” value [1] was 2/14, the “Reduced expression of desires: number of patients categorized to 1) + 2) divided by the number of patients tested” value [1] was 3/29 and the “Reduced initiative in activities: number of patients categorized to 1) + 2) divided by the number of patients tested” value [1] was 3/30. The “Reduced interest in housework, amusement, pastime and the like: number of patients categorized to 1) + 2) divided by the number of patients tested” value [1] was 4/31, the “Reduced positiveness to an influence: number of patients categorized to 1) + 2) divided by the number of patients tested” value [1] was 5/30 and the “Total emotional disorders: number of patients categorized to 1) + 2) divided by the number of patients tested” value [1] was 8/33. For the same compound, the “Total loss of spontaneity: number of patients categorized to 1) + 2) divided by the number of patients tested” value [1] was 4/32, the “Total problem behavior: number of patients categorized to 1) + 2) divided by the number of patients tested” value [1] was 2/18 and the “patients with some improvement of mental disorders, including those judged as "slight" (global evaluation)” value (shortened to “patients with some improvement”) [1] was “about 77%”. The “Final global improvement rating: Excellent (number of patients)” value [2] was 2, the “Final global improvement rating: Moderate (number of patients)” value [2] was 5 and the “Final global improvement rating: Slight (number of patients)” value (“Final global improvement rating: Slight” below) [2] was 20. For the same compound, the “Aggressive behavior: number of patients categorized to 1) + 2) divided by the number of patients tested” value [3] was 3/4, the “Anxiety: number of patients categorized to 1) + 2) divided by the number of patients tested” value [3] was 4/23 and the “Bad humor: number of patients categorized to 1) + 2) divided by the number of patients tested” value [3] was 9/21. The “Delirium: number of patients categorized to 1) + 2) divided by the number of patients tested” value [3] was 2/5, the “Depressive mood: number of patients categorized to 1) + 2) divided by the number of patients tested” value [3] was 8/23 and the “Emotional incontinence: number of patients categorized to 1) + 2) divided by the number of patients tested” value [3] was 3/13. The “Emotional tension: number of patients categorized to 1) + 2) divided by the number of patients tested” value [3] was 3/18, the “Fugue: number of patients categorized to 1) + 2) divided by the number of patients tested” value [3] was 1/3 and the “Irritability: number of patients categorized to 1) + 2) divided by the number of patients tested” value [3] was 5/19. For the same compound, the “Mental excitement: number of patients categorized to 1) + 2) divided by the number of patients tested” value [3] was 4/10, the “Reduced expression of desires: number of patients categorized to 1) + 2) divided by the number of patients tested” value [3] was 5/23 and the “Reduced initiative in activities: number of patients categorized to 1) + 2) divided by the number of patients tested” value [3] was 5/26. For the same compound, the “Reduced interest in housework, amusement, pastime and the like: number of patients categorized to 1) + 2) divided by the number of patients tested” value [3] was 6/27, the “Reduced positiveness to an influence: number of patients categorized to 1) + 2) divided by the number of patients tested” value [3] was 6/23 and the “Total emotional disorders: number of patients categorized to 1) + 2) divided by the number of patients tested” value [3] was 11/28. The “Total loss of spontaneity: number of patients categorized to 1) + 2) divided by the number of patients tested” value [3] was 8/27, the “Total problem behavior: number of patients categorized to 1) + 2) divided by the number of patients tested” value [3] was 5/10 and the “patients with some improvement” value [3] was “about 75%”. The “Final global improvement rating: Excellent (number of patients)” value [4] was 3, the “Final global improvement rating: Moderate (number of patients)” value [4] was 10 and the “Final global improvement rating: Slight” value [4] was 8. The “Aggressive behavior: number of patients categorized to 1) + 2) divided by the number of patients tested” value [5] was 2/5, the “Anxiety: number of patients categorized to 1) + 2) divided by the number of patients tested” value [5] was 6/19 and the “Bad humor: number of patients categorized to 1) + 2) divided by the number of patients tested” value [5] was 6/16. For the same compound, the “Delirium: number of patients categorized to 1) + 2) divided by the number of patients tested” value [5] was 1/4, the “Depressive mood: number of patients categorized to 1) + 2) divided by the number of patients tested” value [5] was 6/18 and the “Emotional incontinence: number of patients categorized to 1) + 2) divided by the number of patients tested” value [5] was 2/10. The “Emotional tension: number of patients categorized to 1) + 2) divided by the number of patients tested” value [5] was 5/15, the “Fugue: number of patients categorized to 1) + 2) divided by the number of patients tested” value [5] was 0/3 and the “Irritability: number of patients categorized to 1) + 2) divided by the number of patients tested” value [5] was 5/16. For the same compound, the “Mental excitement: number of patients categorized to 1) + 2) divided by the number of patients tested” value [5] was 3/8, the “Reduced expression of desires: number of patients categorized to 1) + 2) divided by the number of patients tested” value [5] was 3/16 and the “Reduced initiative in activities: number of patients categorized to 1) + 2) divided by the number of patients tested” value [5] was 6/17. The “Reduced interest in housework, amusement, pastime and the like: number of patients categorized to 1) + 2) divided by the number of patients tested” value [5] was 8/16, the “Reduced positiveness to an influence: number of patients categorized to 1) + 2) divided by the number of patients tested” value [5] was 3/17 and the “Total emotional disorders: number of patients categorized to 1) + 2) divided by the number of patients tested” value [5] was 10/20. For the same compound, the “Total loss of spontaneity: number of patients categorized to 1) + 2) divided by the number of patients tested” value [5] was 9/18, the “Total problem behavior: number of patients categorized to 1) + 2) divided by the number of patients tested” value [5] was 3/10 and the “patients with some improvement” value [5] was “about 80%”. The “Final global improvement rating: Excellent (number of patients)” value [6] was 6, the “Final global improvement rating: Moderate (number of patients)” value [6] was 7 and the “Final global improvement rating: Slight” value [6] was 3.
